The values that follow come from article PMC12169608, “Peptidomimetic Phenoxymethyl Ketone Warheads as Potent Dual-Mode Inhibitors against SARS-CoV‑2 M^pro and Cathepsin” (Journal of Medicinal Chemistry, 2025).

The test has as its target SARS-CoV-2 main protease (Mpro) (Severe acute respiratory syndrome coronavirus 2, UniProt P0DTD1). In words: cell-based.
On to `COc1cccc2[nH]c(C(=O)N[C@@H](Cc3cccc(F)c3)C(=O)N[C@@H](C[C@@H]3CCNC3=O)C(=O)COc3c(F)c(F)c(CO)c(F)c3F)cc12` [compound 1, N-((S)-3-(3-Fluorophenyl)-1-oxo-1-(((S)-3-oxo-1-((S)-2-oxopyrrolidin-3-yl)-4-(2,3,5,6-tetrafluoro-4-(hydroxymethyl)phenoxy)butan-2-yl)amino)propan-2-yl)-4-methoxy-1H-indole-2-carboxamide], for which a half-maximal response (EC50) required 105 nM.
In turn, `COc1cccc2[nH]c(C(=O)N[C@H](Cc3cccc(F)c3)C(=O)N[C@@H](C[C@@H]3CCNC3=O)C(=O)COc3c(F)c(F)c(CO)c(F)c3F)cc12` [compound 2, N-((R)-3-(3-Fluorophenyl)-1-oxo-1-(((S)-3-oxo-1-((S)-2-oxopyrrolidin-3-yl)-4-(2,3,5,6-tetrafluoro-4-(hydroxymethyl)phenoxy)butan-2-yl)amino)propan-2-yl)-4-methoxy-1H-indole-2-carboxamide] had an EC50 of 18600 nM.
Consider `CCCCCCCCCCCCCCCC(=O)N[C@@H](Cc1cccc(F)c1)C(=O)N[C@@H](C[C@@H]1CCNC1=O)C(=O)COc1c(F)c(F)c(CO)c(F)c1F` [compound 4, N-((S)-3-(3-Fluorophenyl)-1-oxo-1-(((S)-3-oxo-1-((S)-2-oxopyrrolidin-3-yl)-4-(2,3,5,6-tetrafluoro-4-(hydroxymethyl)phenoxy)butan-2-yl)amino)propan-2-yl)palmitamide], for which the EC50 is > 50100 nM.
Turning to `O=C(N[C@@H](Cc1c[nH]c2ccccc12)C(=O)N[C@@H](C[C@@H]1CCNC1=O)C(=O)COc1c(F)c(F)c(CO)c(F)c1F)c1cc2ccccc2[nH]1` [compound 5, N-((S)-3-(1H-Indol-3-yl)-1-oxo-1-(((S)-3-oxo-1-((S)-2-oxopyrrolidin-3-yl)-4-(2,3,5,6-tetrafluoro-4-(hydroxymethyl)phenoxy)butan-2-yl)amino)propan-2-yl)-1H-indole-2-carboxamide], the EC50 is 2880 nM.
In turn, `COc1cccc2[nH]c(C(=O)N[C@@H](Cc3cccc(F)c3)C(=O)N[C@@H](C[C@@H]3CCNC3=O)C(=O)COc3c(F)c(F)c(C(C)O)c(F)c3F)cc12` (stereo partly drawn) [compound 8, N-((2S)-3-(3-Fluorophenyl)-1-oxo-1-(((2S)-3-oxo-1-((S)-2-oxopyrrolidin-3-yl)-4-(2,3,5,6-tetrafluoro-4-(1-hydroxyethyl)phenoxy)butan-2-yl)amino)propan-2-yl)-4-methoxy-1H-indole-2-carboxamide] had an EC50 of 8.71 nM.
In turn, `COc1cccc2[nH]c(C(=O)N[C@@H](Cc3cccc(F)c3)C(=O)N[C@@H](C[C@@H]3CCNC3=O)C(=O)COc3c(F)c(F)c(C(C)(C)O)c(F)c3F)cc12` [compound 10, N-((S)-3-(3-Fluorophenyl)-1-oxo-1-(((S)-3-oxo-1-((S)-2-oxopyrrolidin-3-yl)-4-(2,3,5,6-tetrafluoro-4-(2-hydroxypropan-2-yl)phenoxy)butan-2-yl)amino)propan-2-yl)-4-methoxy-1H-indole-2-carboxamide] had an EC50 of 4.68 nM.
In turn, `COc1cccc2[nH]c(C(=O)N[C@@H](Cc3cccc(F)c3)C(=O)N[C@@H](C[C@@H]3CC(=O)NC3=O)C(=O)COc3c(F)c(F)c(C(C)(C)O)c(F)c3F)cc12` [compound 11] gave a half-maximal effective concentration (EC50) of 1230 nM.
For the molecule `COc1cccc2[nH]c(C(=O)N[C@@H](Cc3cccc(F)c3)C(=O)N[C@@H](C[C@@H]3CCNC3=O)C(=O)COc3c(F)c(F)c(F)c(F)c3F)cc12` [compound 16, reference compound], the concentration giving a half-maximal response (EC50) is < 3.02 nM.
With “N-((S)-3-(3-Fluorophenyl)-1-oxo-1-(((S)-2-oxo-5-(5-oxo-1,5-dihydro-4H-1,2,4-triazol-4-yl)-1-(2,3,5,6-tetrafluoro-4-(2-hydroxypropan-2-yl)phenoxy)pentan-3-yl)amino)propan-2-yl)-4-methoxy-1H-indole-2-carboxamide [compound 12]”, the “M^pro reporter assay pEC50” value was found to be 4.66.
